Experimental data taken from BigSolDB 2.1.

COc1ccc(C(=O)O)c(OC)c1OC
solubility (mole fraction)
Conditions	278.15 K	283.15 K	288.15 K	293.15 K	298.15 K	303.15 K	308.15 K	313.15 K	318.15 K
in 2-butoxyethanol	0.0838	0.0944	0.113	0.127	0.148	0.167	0.185	0.207	0.25
in 2-ethoxyethanol	0.179	0.207	0.238	0.264	0.289	0.318	0.353	0.39	0.431
in 2-methoxyethanol	0.11	0.127	0.154	0.168	0.194	0.213	0.233	0.26	0.283
in ethanol	0.0482	0.0585	0.0733	0.0926	0.116	0.154	0.199	0.27	0.3
in ethyl acetate	0.066	0.0792	0.0992	0.112	0.13	0.174	0.236	0.283	0.301
in ethylene glycol	0.0165	0.0188	0.0227	0.0281	0.036	0.0421	0.0501	0.0635	0.0828
in isopropanol	0.0261	0.0363	0.0496	0.069	0.0801	0.102	0.129	0.158	0.186
in isopropyl acetate	0.0412	0.0495	0.0584	0.0692	0.0778	0.0892	0.0988	0.115	0.137
in n-butyl acetate	0.047	0.0574	0.0673	0.0751	0.0832	0.0991	0.12	0.136	0.168
in n-propanol	0.0312	0.0405	0.0538	0.072	0.082	0.104	0.129	0.161	0.189
in n-propyl acetate	0.0357	0.0454	0.0549	0.0722	0.0829	0.106	0.13	0.162	0.189
in water	0.000331	0.000419	0.000497	0.000553	0.000703	0.000892	0.00109	0.00134	0.00152
